In brackets after ≈: the same amount, converted by molar mass.
Assays:
[1] = system: Kasumi-1 (acute myeloid leukemia M2 type, AML-M2); assay: Leukemia cell growth inhibition, MTT, 72 h (Example 5); type: cell-based, human; conditions: Homo sapiens, Kasumi 1
Outline: (§1)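 Seed 6000 leukemia cells per well in 1640 medium containing 10% FBS. Add test compounds at different concentrations, mix, incubate 72 hours at 37° C in 5% CO2. Determine viable cells by MTT.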

[2] = system: NB4 (acute promyelocytic leukemia, AML); assay: as above; type: cell-based, human; conditions: Homo sapiens; 72 h, MTT
Outline: as §1

[3] = system: Jurkat (acute lymphoblastic leukemia, ALL); assay: as above; type: cell-based, human; conditions: for IC50 / IC90: Homo sapiens, Jurkat, 72 h, MTT
Outline: as §1

[4] = system: K562/adr (drug-resistant, chronic myeloid leukemia, CML); assay: as above; type: cell-based, human; conditions: Homo sapiens, K562/Adr; 72 h, MTT
Outline: as §1

[5] = system: H9 (acute lymphoblastic leukemia, ALL); assay: as above; type: cell-based, human; conditions: Homo sapiens; 72 h, MTT
Outline: as §1

[6] = system: MGC 803 (human gastric cancer cell); assay: Solid tumor cell growth inhibition, MTT, 72 h (Example 7); type: cell-based; conditions: Homo sapiens
Outline: (§2)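 First, 4000 cells per well are plated in DMEM high glucose with 10% fetal bovine serum and incubated 24 h (37 °C, 5% CO2). Next, derivatives are added at different concentrations. After 72 h, MTT gives viable cell concentration, expressed as % of untreated control.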

[7] = system: Hela (human cervical cancer cell); assay: as above; type: cell-based; conditions: Homo sapiens; 72 h, MTT, Hela
Outline: as §2

[8] = system: RKO (human colon adenocarcinoma cell); assay: as above; type: cell-based; conditions: Homo sapiens; 72 h, MTT, RKO
Outline: as §2

[9] = system: SK-OV-3 (ovarian cancer cell); assay: as above; type: cell-based; conditions: Homo sapiens
Outline: as §2

[10] = system: Huh7 (human liver cancer cell); assay: as above; type: cell-based; conditions: Homo sapiens; 72 h, MTT, Huh-7
Outline: as §2

A549 (human lung cancer) = assay: as above; type: cell-based; conditions: Homo sapiens; 72 h, MTT, A549
Outline: as §2

[11] = system: CNE (nasopharyngeal carcinoma cell); assay: as above; type: cell-based; conditions: Homo sapiens
Outline: as §2

[12] = system: U87 MG (malignant glioma cell); assay: as above; type: cell-based; conditions: Homo sapiens, U-87 MG
Outline: as §2

[13] = system: Becap37 (human breast cancer cell); assay: as above; type: cell-based; conditions: Homo sapiens; 72 h, MTT, Becap-37
Outline: as §2

[14] = system: CaES-17 (esophageal cancer cell); assay: as above; type: cell-based, human; conditions: Homo sapiens, CaEs17; 72 h, MTT, CAES-17
Outline: as §2

[15] = system: Hep-2 (laryngeal carcinoma); assay: as above; type: cell-based, human; conditions: Homo sapiens; 72 h, MTT, Hep 2
Outline: as §2

PC-3 (prostate cancer) = assay: as above; type: cell-based, human; conditions: Homo sapiens; 72 h, MTT, PC-3
Outline: as §2

[16] = system: PANC-1 (pancreatic cancer); assay: as above; type: cell-based, human; conditions: Homo sapiens; 72 h, MTT, PANC-1
Outline: as §2

MG63 (osteosarcoma) = assay: as above; type: cell-based, human; conditions: Homo sapiens; 72 h, MTT, MG-63
Outline: as §2

[17] = system: RPMI8226 (multiple myeloma); assay: Multiple myeloma cell growth inhibition, MTT, 72 h (Example 6); type: cell-based, human; conditions: Homo sapiens, RPMI-8226; 72 h, MTT, RPMI8226
Outline: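 Viability was read by MTT after 72 h of compound exposure at 37 °C, 5% CO2. Each well held 6000 RPMI8226 cells in 1640 medium containing 10% fetal bovine serum, with derivatives added at various concentrations.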

COc1ccc2cc1Oc1ccc(cc1)C[C@H]1c3cc(c(OC)cc3CCN1C)Oc1c(OC)c(OC)c(CNCc3ccc(C)o3)c3c1[C@H](C2)N(C)CC3 [BS-TE-358]
IC50 [1]: 1.1 µg/mL (≈ 1.47 µM) | IC90 [1]: 3.71 µg/mL (≈ 4.97 µM) | IC50 [2]: 0.8 µg/mL (≈ 1.07 µM) | IC90 [2]: 2 µg/mL (≈ 2.68 µM) | IC50 [3]: 0.55 µg/mL (≈ 0.737 µM) | IC90 [3]: 4 µg/mL (≈ 5.36 µM) | anti-Jurkat activity increase over tetrandrine ([3]; compared with tetrandrine): ~4 fold | IC50 [4]: 0.63 µg/mL (≈ 0.845 µM) | IC90 [4]: 3.15 µg/mL (≈ 4.22 µM) | IC50 [5]: 1.45 µg/mL (≈ 1.94 µM) | IC90 [5]: 2.4 µg/mL (≈ 3.22 µM) | IC50 [6]: 1.39 µg/mL (≈ 1.86 µM) | IC90 [6]: 7.08 µg/mL (≈ 9.49 µM) | IC50 [7]: 2.12 µg/mL (≈ 2.84 µM) | IC90 [7]: 3.97 µg/mL (≈ 5.32 µM) | IC50 [8]: 0.6 µg/mL (≈ 0.804 µM) | IC90 [8]: 1.67 µg/mL (≈ 2.24 µM) | IC50 [9]: 4 µg/mL (≈ 5.36 µM) | IC90 [9]: > 16 µg/mL | IC50 [10]: 1.35 µg/mL (≈ 1.81 µM) | IC90 [10]: 1.92 µg/mL (≈ 2.57 µM) | IC50 (A549 (human lung cancer)): 4 µg/mL (≈ 5.36 µM) | IC90 (A549 (human lung cancer)): 16 µg/mL (≈ 21.5 µM) | IC50 [11]: 2.26 µg/mL (≈ 3.03 µM) | IC90 [11]: 4.12 µg/mL (≈ 5.52 µM) | IC50 [12]: 0.65 µg/mL (≈ 0.871 µM) | IC90 [12]: 1.99 µg/mL (≈ 2.67 µM) | IC50 [13]: 1.96 µg/mL (≈ 2.63 µM) | IC90 [13]: 4.5 µg/mL (≈ 6.03 µM) | IC50 [14]: 2.69 µg/mL (≈ 3.61 µM) | IC90 [14]: 10.1 µg/mL (≈ 13.5 µM) | IC50 [15]: 3.37 µg/mL (≈ 4.52 µM) | IC90 [15]: 7.54 µg/mL (≈ 10.1 µM) | IC50 (PC-3 (prostate cancer)): 3.7 µg/mL (≈ 4.96 µM) | IC90 (PC-3 (prostate cancer)): 5.9 µg/mL (≈ 7.91 µM) | IC50 [16]: 2.66 µg/mL (≈ 3.57 µM) | IC90 [16]: 9.71 µg/mL (≈ 13 µM) | IC50 (MG63 (osteosarcoma)): 1.5 µg/mL (≈ 2.01 µM) | IC90 (MG63 (osteosarcoma)): 2.8 µg/mL (≈ 3.75 µM) | IC50 [17]: 0.08 µg/mL (≈ 0.107 µM) | IC90 [17]: 3.69 µg/mL (≈ 4.95 µM)

COc1ccc2cc1Oc1ccc(cc1)C[C@H]1c3cc(c(OC)cc3CCN1C)Oc1c(OC)c(OC)c(CNCc3cccs3)c3c1[C@H](C2)N(C)CC3 [BS-TE-359]
IC50 [1]: 0.42 µg/mL (≈ 0.562 µM) | IC90 [1]: 1.83 µg/mL (≈ 2.45 µM) | IC50 [2]: 0.4 µg/mL (≈ 0.535 µM) | IC90 [2]: 1 µg/mL (≈ 1.34 µM) | IC50 [3]: 0.65 µg/mL (≈ 0.869 µM) | IC90 [3]: 5 µg/mL (≈ 6.68 µM) | IC50 [4]: 0.36 µg/mL (≈ 0.481 µM) | IC90 [4]: 2.18 µg/mL (≈ 2.91 µM) | IC50 [5]: 1.25 µg/mL (≈ 1.67 µM) | IC90 [5]: 2.3 µg/mL (≈ 3.08 µM) | IC50 [6]: 0.88 µg/mL (≈ 1.18 µM) | IC90 [6]: 6 µg/mL (≈ 8.02 µM) | IC50 [7]: 1.09 µg/mL (≈ 1.46 µM) | IC90 [7]: 2.56 µg/mL (≈ 3.42 µM) | IC50 [8]: 0.58 µg/mL (≈ 0.775 µM) | IC90 [8]: 1.01 µg/mL (≈ 1.35 µM) | IC50 [9]: 2 µg/mL (≈ 2.67 µM) | IC90 [9]: 14.4 µg/mL (≈ 19.3 µM) | IC50 [10]: 1.19 µg/mL (≈ 1.59 µM) | IC90 [10]: 1.68 µg/mL (≈ 2.25 µM) | IC50 (A549 (human lung cancer)): 3.3 µg/mL (≈ 4.41 µM) | IC90 (A549 (human lung cancer)): 12.8 µg/mL (≈ 17.1 µM) | IC50 [11]: 1.57 µg/mL (≈ 2.1 µM) | IC90 [11]: 2.83 µg/mL (≈ 3.78 µM) | IC50 [12]: 0.33 µg/mL (≈ 0.441 µM) | IC90 [12]: 1.01 µg/mL (≈ 1.35 µM) | IC50 [13]: 1.1 µg/mL (≈ 1.47 µM) | IC90 [13]: 2 µg/mL (≈ 2.67 µM) | IC50 [14]: 1.61 µg/mL (≈ 2.15 µM) | IC90 [14]: 7.67 µg/mL (≈ 10.3 µM) | IC50 [15]: 4.6 µg/mL (≈ 6.15 µM) | IC90 [15]: 8.29 µg/mL (≈ 11.1 µM) | IC50 (PC-3 (prostate cancer)): 3 µg/mL (≈ 4.01 µM) | IC90 (PC-3 (prostate cancer)): 4.7 µg/mL (≈ 6.28 µM) | IC50 [16]: 2.44 µg/mL (≈ 3.26 µM) | IC90 [16]: 8.04 µg/mL (≈ 10.7 µM) | IC50 (MG63 (osteosarcoma)): 1.1 µg/mL (≈ 1.47 µM) | IC90 (MG63 (osteosarcoma)): 1.98 µg/mL (≈ 2.65 µM) | IC50 [17]: 0.05 µg/mL (≈ 0.0668 µM) | IC90 [17]: 1.42 µg/mL (≈ 1.9 µM)

Source: patent publication US9133207B2, “Tetrandrine derivatives with substituted 5-carbon, preparation method and use thereof” (Hangzhou Bensheng Pharmaceutical Co., Ltd., priority 2011, dated 2015)
